{"source": "ChEMBL document CHEMBL5634146", "about": "“Discovery of benzimidazole-indazole derivatives as potent FLT3-tyrosine kinase domain mutant kinase inhibitors for acute myeloid leukemia” (Eur J Med Chem, 2023)", "key": {"in vitro [1]": {"experiment": "in vitro", "details": "mouse, liver S9 fraction"}, "in vitro [2]": {"experiment": "in vitro", "details": "human, liver S9 fraction"}}, "data": [{"smiles": "N[C@H]1CC[C@H](NC(=O)c2ccc3[nH]nc(-c4nc5ccc(N6CCOCC6)cc5[nH]4)c3c2)C1", "values": [{"measurement": "remaining at 0.5 h", "setting": "in vitro [1]", "value": 61, "unit": "%"}, {"measurement": "remaining at 0.5 h", "setting": "in vitro [2]", "value": 61, "unit": "%"}]}]}
